# According to patent US20070048231A1, “Pheromone compositions and methods” (priority 2005, published 2007):
# Columns and labels:
# [1] = system: exercise strength and stamina; experiment: Inhalation exposure of the inventor to androstenone released from a polyethylene bag: exercise strength and stamina; type: in vivo; details: human (inventor), after about five to seven days of exposure
# Source text: (§1) For example, increased strength was evidenced by an at least 5-10%, and more typically 10-20% increase of weight that was lifted as compared to the same exercise before exposure to the pheromone.
# With respect to the effects afforded by contemplated compositions and devices, it is generally contemplated that the steroid pheromones will exert both a desirable behavioral effect as well as a desirable non-behavioral effect. […] The term “exercise strength” as used herein refers to an ability to lift a particular weight in a given exercise routine (e.g., lifting of 100 pounds on a bench press). Thus, where exercise strength is increased, heavier weights can be lifted. Most typically the increase in exercise strength is between 5 and 40%, and more typically between 10 and 25%. […] The term “exercise stamina” as used herein refers to an ability to lift a particular weight in a given exercise routine for a maximum of repeats Rmax (e.g., lifting of 100 pounds on a bench press ten times). Thus, where exercise stamina is increased, the weight can be lifted more that Rmax times. Most typically the increase in exercise strength is between 5 and 30%, and more typically between 10 and 20%.
# [2] = system: sinusitis; experiment: Inhalation exposure of the inventor to androstenone released from a polyethylene bag: sinusitis signs and symptoms; type: in vivo; details: human (inventor); about 500 mg in polyethylene bag; about five to seven days of exposure, two to eight hours per day
# Source text: as §1
# Therefore, it is also contemplated that the compositions and methods presented herein may present a convenient matter to treat and/or alleviate signs and symptoms of airway inflammation. Most preferably, such inflammation may be sinusitis, asthma, and allergic airway inflammation. In yet other contemplated aspects, additional behavioral effects may be advantageously conferred by use of contemplated compositions and methods, especially including feeling of increased energy, sexual desire, and self-confidence.
structure (smiles),measurement,setting,value
"C[C@]12CCC(=O)C[C@@H]1CC[C@@H]1[C@@H]2CC[C@]2(C)C=CC[C@@H]12 [androstenone, 5α-androst-16-en-3-one]",increase of weight that was lifted as compared to the same exercise before exposure (exercise strength),[1]; 'at least',5-10%
same,increase of weight that was lifted as compared to the same exercise before exposure (exercise strength),[1]; 'more typically',10-20%
same,increase in number of repeats per exercise (exercise stamina),[1]; 'most typically',5-20%
same,signs and symptoms of a previously diagnosed sinusitis,[2],all signs and symptoms of a previously diagnosed sinusitis had disappeared
